In patent US11739098B2 (BRISTOL-MYERS SQUIBB COMPANY, priority 2017, dated 2023):

Assays:
Format in all cases: cell-based
[1] = biological target: T1, human TLR7 (Homo sapiens, UniProt Q9NYK1); assay: TLR7 inhibition reporter assay (HEK-Blue cells, SEAP reporter, gardiquimod stimulation); details: HEK-Blue cells overexpressing human TLR7, SEAP reporter, gardiquimod 7.5 μM
T1 construct: host or cells: HEK-Blue cells (HEK293-derived reporter line)
T1 sequence (Q9NYK1 27-1049): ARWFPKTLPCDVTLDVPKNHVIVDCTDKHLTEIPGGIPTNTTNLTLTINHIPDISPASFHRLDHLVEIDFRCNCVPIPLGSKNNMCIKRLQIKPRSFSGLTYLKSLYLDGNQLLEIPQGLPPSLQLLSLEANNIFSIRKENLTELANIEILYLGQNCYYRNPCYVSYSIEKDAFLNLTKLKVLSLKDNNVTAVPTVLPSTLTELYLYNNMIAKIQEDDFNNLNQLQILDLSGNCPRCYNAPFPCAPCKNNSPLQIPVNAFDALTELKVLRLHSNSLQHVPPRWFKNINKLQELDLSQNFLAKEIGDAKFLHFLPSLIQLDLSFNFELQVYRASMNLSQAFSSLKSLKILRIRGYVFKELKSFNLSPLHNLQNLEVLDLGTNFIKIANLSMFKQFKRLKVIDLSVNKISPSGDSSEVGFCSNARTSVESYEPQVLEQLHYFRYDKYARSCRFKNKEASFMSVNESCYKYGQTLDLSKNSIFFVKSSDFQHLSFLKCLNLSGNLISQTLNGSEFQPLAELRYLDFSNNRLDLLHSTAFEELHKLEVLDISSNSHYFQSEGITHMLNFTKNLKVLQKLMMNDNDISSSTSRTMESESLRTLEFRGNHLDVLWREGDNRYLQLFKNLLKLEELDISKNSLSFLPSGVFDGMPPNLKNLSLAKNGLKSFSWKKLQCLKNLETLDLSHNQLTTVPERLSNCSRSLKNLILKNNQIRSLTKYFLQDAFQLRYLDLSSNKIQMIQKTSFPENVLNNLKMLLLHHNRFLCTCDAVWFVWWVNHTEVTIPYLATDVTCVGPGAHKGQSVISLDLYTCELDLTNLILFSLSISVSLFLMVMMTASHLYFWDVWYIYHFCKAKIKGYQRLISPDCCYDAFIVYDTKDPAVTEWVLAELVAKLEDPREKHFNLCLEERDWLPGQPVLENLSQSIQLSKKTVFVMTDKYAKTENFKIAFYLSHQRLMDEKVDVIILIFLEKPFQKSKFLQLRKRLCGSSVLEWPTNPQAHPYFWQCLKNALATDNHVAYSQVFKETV
Method in brief: (§1)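 Agonists (final): TLR7 gardiquimod 7.5 μM; TLR8 R848 15.9 μM; TLR9 ODN2006 5 nM. HEK-Blue reporter cells, 30 min RT compound pre-incubation, 0.05 nM–50 μM dose range, 22 h at 37 °C, colorimetric SEAP detection medium. % inhibition relative to agonist+DMSO and known-inhibitor wells.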

[2] = biological target: T2, human TLR8 (Homo sapiens, UniProt Q9NR97); assay: TLR8 inhibition reporter assay (HEK-Blue cells, SEAP reporter, R848 stimulation); details: HEK-Blue cells overexpressing human TLR8, SEAP reporter, R848 15.9 μM
T2 construct: host or cells: HEK-Blue cells (HEK293-derived reporter line)
T2 sequence (Q9NR97 27-1041): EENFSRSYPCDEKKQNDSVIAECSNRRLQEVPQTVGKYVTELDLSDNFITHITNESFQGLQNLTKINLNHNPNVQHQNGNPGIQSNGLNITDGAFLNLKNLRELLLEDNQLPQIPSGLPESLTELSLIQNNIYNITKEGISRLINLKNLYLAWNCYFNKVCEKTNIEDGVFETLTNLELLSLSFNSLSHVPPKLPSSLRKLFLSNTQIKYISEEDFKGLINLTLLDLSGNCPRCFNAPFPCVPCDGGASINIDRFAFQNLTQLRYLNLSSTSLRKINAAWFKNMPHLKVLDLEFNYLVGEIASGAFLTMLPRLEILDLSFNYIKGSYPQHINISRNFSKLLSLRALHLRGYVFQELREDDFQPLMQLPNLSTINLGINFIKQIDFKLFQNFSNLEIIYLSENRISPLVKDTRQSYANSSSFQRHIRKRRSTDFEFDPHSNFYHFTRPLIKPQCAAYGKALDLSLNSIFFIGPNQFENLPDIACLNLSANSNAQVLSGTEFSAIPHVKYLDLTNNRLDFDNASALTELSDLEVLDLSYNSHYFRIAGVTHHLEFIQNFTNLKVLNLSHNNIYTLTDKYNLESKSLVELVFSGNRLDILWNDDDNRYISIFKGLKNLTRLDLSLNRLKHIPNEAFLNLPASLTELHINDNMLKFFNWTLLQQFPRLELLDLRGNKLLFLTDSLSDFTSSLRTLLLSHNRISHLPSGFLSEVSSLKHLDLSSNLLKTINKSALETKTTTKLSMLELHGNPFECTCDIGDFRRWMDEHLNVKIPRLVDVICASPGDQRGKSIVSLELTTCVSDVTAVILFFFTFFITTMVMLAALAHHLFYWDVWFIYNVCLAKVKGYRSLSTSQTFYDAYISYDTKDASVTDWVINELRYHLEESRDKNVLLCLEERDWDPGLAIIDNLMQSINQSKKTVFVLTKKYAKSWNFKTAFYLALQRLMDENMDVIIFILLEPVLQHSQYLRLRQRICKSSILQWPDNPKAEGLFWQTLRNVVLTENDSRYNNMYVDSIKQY
Method in brief: as §1

[3] = biological target: T3, human TLR9 (Homo sapiens, UniProt Q9NR96); assay: TLR9 inhibition reporter assay (HEK-Blue cells, SEAP reporter, ODN2006 stimulation); details: HEK-Blue cells overexpressing human TLR9, SEAP reporter, ODN2006 5 nM
T3 construct: host or cells: HEK-Blue cells (HEK293-derived reporter line)
T3 sequence (Q9NR96 26-1032): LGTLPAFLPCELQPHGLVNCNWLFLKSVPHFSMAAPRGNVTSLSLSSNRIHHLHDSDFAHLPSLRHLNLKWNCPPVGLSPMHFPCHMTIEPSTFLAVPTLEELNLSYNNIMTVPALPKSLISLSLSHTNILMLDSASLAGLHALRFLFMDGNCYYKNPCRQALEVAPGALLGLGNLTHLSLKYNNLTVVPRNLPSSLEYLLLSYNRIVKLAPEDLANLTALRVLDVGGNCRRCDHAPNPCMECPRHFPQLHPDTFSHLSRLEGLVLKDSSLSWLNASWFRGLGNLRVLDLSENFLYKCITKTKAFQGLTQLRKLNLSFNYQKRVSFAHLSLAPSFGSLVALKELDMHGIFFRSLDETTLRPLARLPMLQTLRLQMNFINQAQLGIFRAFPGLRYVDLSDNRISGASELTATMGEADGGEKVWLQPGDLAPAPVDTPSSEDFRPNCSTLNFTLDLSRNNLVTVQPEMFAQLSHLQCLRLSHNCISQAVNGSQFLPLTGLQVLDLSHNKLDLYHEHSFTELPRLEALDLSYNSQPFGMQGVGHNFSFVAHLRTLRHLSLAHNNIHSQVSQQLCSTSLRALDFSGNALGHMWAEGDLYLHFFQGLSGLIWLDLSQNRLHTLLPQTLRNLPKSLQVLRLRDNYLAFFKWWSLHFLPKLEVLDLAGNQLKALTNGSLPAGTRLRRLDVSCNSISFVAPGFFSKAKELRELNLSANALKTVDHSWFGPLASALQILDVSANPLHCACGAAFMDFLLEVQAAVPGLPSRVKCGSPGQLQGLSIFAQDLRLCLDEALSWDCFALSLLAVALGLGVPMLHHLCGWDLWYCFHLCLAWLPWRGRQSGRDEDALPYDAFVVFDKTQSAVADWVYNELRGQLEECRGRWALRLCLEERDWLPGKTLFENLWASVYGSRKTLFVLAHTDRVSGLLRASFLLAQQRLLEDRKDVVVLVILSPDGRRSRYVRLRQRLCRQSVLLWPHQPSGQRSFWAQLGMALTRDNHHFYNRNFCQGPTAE
Method in brief: as §1

Row | Compound | IC50 [1] | IC50 [2] | IC50 [3]
1 | CC(C)c1c(-c2ccc3ncnn3n2)[nH]c2ccc(C3CCN(C4CCOCC4)CC3)cc12 [Example 683, 6-(3-isopropyl-5-(1-(tetrahydro-2H-pyran-4-yl)piperidin-4-yl)-1H-indol-2-yl)-[1,2,4]triazolo[1,5-b]pyridazine] | < 0.1 µM | < 0.1 µM | 1 to 50 µM
2 | COc1cc2[nH]c(-c3ccnc4[nH]ncc34)c(C(C)C)c2cc1C1CCNCC1 [Example 255, 4-(3-isopropyl-6-methoxy-5-(piperidin-4-yl)-1H-indol-2-yl)-1H-pyrazolo[3,4-b]pyridine] | < 0.1 µM | 0.1 to 1 µM | 1 to 50 µM
3 | Cc1cc(-c2[nH]c3ccc(C4CCN(CC(=O)N(C)C)CC4)cc3c2C(C)C)cc2cccnc12 [Example 435, 2-(4-(3-isopropyl-2-(8-methylquinolin-6-yl)-1H-indol-5-yl)piperidin-1-yl)-N,N-dimethylacetamide] | < 0.1 µM | < 0.1 µM | 1 to 50 µM
4 | CC(C)c1c(-c2ccnc3[nH]ncc23)[nH]c2ccc(C3CCN(C4C[C@H]5CC[C@@H](C4)N5C)CC3)cc12 (stereo partly drawn) [Example 829, 4-(3-isopropyl-5-(1-((1R,5S)-8-methyl-8-azabicyclo[3.2.1]octan-3-yl)piperidin-4-yl)-1H-indol-2-yl)-1H-pyrazolo[3,4-b]pyridine] | < 0.1 µM | < 0.1 µM | 0.1 to 1 µM
5 | CC(C)NC(=O)CN1CCC(c2ccc3[nH]c(-c4ccc5nccn5c4)c(C(C)C)c3c2)CC1 [Example 402, 2-(4-(2-(imidazo[1,2-a]pyridin-6-yl)-3-isopropyl-1H-indol-5-yl)piperidin-1-yl)-N-isopropylacetamide] | < 0.1 µM | 0.1 to 1 µM | 1 to 50 µM
6 | CC(C)c1c(-c2ccnc3[nH]ncc23)[nH]c2ccc(C3CCN(C(=O)CN(C)C(C)C)CC3)cc12 [Example 585, 2-(isopropyl(methyl)amino)-1-(4-(3-isopropyl-2-(1H-pyrazolo[3,4-b]pyridin-4-yl)-1H-indol-5-yl)piperidin-1-yl)ethan-1-one] | < 0.1 µM | < 0.1 µM | 1 to 50 µM
7 | Cc1c[nH]c2nccc(-c3[nH]c4ccc(C5CCNCC5)cc4c3C(C)C)c12 [Example 215, 4-(3-isopropyl-5-(piperidin-4-yl)-1H-indol-2-yl)-3-methyl-1H-pyrrolo[2,3-b]pyridine] | 0.1 to 1 µM | 0.1 to 1 µM | 1 to 50 µM
8 | Cc1cc(-c2[nH]c3ccc(C4CCN(C(=O)CCN5[C@@H]6CC[C@H]5COC6)CC4)cc3c2C(C)C)cn2nnnc12 [Example 635, 3-((1R,5S)-3-oxa-8-azabicyclo[3.2.1]octan-8-yl)-1-(4-(3-isopropyl-2-(8-methyltetrazolo[1,5-a]pyridin-6-yl)-1H-indol-5-yl)piperidin-1-yl)propan-1-one] | < 0.1 µM | < 0.1 µM | 1 to 50 µM
9 | CCc1c(-c2ccnc3[nH]ncc23)[nH]c2ccc(C3CCN(C(=O)C4CCNCC4)CC3)cc12 [Example 647, (4-(3-ethyl-2-(1H-pyrazolo[3,4-b]pyridin-4-yl)-1H-indol-5-yl)piperidin-1-yl)(piperidin-4-yl)methanone] | 0.1 to 1 µM | 0.1 to 1 µM | 1 to 50 µM
10 | Cc1nc2c(-c3[nH]c4ccc(C5CCN(CC(=O)N(C)C)CC5)cc4c3C(C)C)ccc(C)n2n1 [Example 384, 2-(4-(2-(2,5-dimethyl-[1,2,4]triazolo[1,5-a]pyridin-8-yl)-3-isopropyl-1H-indol-5-yl)piperidin-1-yl)-N,N-dimethylacetamide] | 1 to 50 µM | 0.1 to 1 µM | 1 to 50 µM
11 | Cc1c(-c2[nH]c3ccc(C4CCN(CC(C)(C)O)CC4)cc3c2C(C)C)cn2ccnc2c1Cl [Example 772, 1-(4-(2-(8-chloro-7-methylimidazo[1,2-a]pyridin-6-yl)-3-isopropyl-1H-indol-5-yl)piperidin-1-yl)-2-methylpropan-2-ol] | < 0.1 µM | < 0.1 µM | 1 to 50 µM
12 | CNC(=O)CN1CCC(c2ccc3[nH]c(-c4ccn5nc(C)cc5c4)c(C(C)C)c3c2)CC1 [Example 322, 2-(4-(3-isopropyl-2-(2-methylpyrazolo[1,5-a]pyridin-5-yl)-1H-indol-5-yl)piperidin-1-yl)-N-methylacetamide] | 0.1 to 1 µM | 1 to 50 µM | 1 to 50 µM
13 | CC(C)c1c(-c2ccc3cnnn3c2)[nH]c2ccc(C3CCN(CC(=O)N(C)C)CC3)cc12 [Example 299, 2-(4-(2-([1,2,3]triazolo[1,5-a]pyridin-6-yl)-3-isopropyl-1H-indol-5-yl)piperidin-1-yl)-N,N-dimethylacetamide] | 0.1 to 1 µM | 0.1 to 1 µM | 0.1 to 1 µM
14 | CC(C)c1c(-c2ccc3nccn3c2)[nH]c2ccc(C3CCN(C(=O)[C@H]4CCCNC4)CC3)cc12 [Example 640, (S)-(4-(2-(imidazo[1,2-a]pyridin-6-yl)-3-isopropyl-1H-indol-5-yl)piperidin-1-yl)(piperidin-3-yl)methanone] | < 0.1 µM | 0.1 to 1 µM | 1 to 50 µM
